Data taken from US8796230B2, “Ivermectin antagonizes ethanol inhibition in P2X4 receptors” (University of Southern California, priority 2010, dated 2014).
Entries after “also recorded” stand apart in the source; their conditions may differ. Like-named read-outs stand apart in the source and are kept apart here.

Tests used:
rat P2X4R = molecular target: T1, rat P2X4R (Rattus norvegicus, UniProt P51577); assay: Two-electrode voltage-clamp of ATP EC10-induced currents in WT P2X4Rs expressed in Xenopus oocytes; type: cell-based
T1 construct: expressed in transfected cells; host or cells: Xenopus laevis oocytes injected with cRNA
T1 sequence (P51577 1-388): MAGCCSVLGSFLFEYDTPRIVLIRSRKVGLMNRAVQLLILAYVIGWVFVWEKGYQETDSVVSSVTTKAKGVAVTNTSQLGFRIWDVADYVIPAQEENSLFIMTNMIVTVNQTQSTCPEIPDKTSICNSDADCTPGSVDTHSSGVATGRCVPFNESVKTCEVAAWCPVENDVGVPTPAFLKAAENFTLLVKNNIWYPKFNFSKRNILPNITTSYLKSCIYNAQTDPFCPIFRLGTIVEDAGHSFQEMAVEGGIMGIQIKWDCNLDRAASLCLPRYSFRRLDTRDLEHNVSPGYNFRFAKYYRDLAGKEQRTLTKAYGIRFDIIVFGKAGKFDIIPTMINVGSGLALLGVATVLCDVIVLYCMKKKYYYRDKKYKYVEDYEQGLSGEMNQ
Method: Isolation of Xenopus Laevis oocytes and cRNA injections. Xenopus oocytes were isolated and maintained as described previously^18,19. All procedures for the maintenance of Xenopus Laevis frogs and oocyte isolation were approved by The Institutional Animal Care and Use Committee of the University of Southern California. Stage V and VI oocytes were used for cRNA (0.01-5 ng) injections using Nanoject II Nanoliter injection system (Drummond Scientific, Broomall, Pa.) one day after isolation. Injected oocytes were stored at 16° C. in incubation medium containing (in mM), […], theophylline 0.6, pyruvic acid 2.5, with 1% horse serum and 0.05 mg/ml gentamycin. The oocytes were used in electrophysiological recordings for 3-10 days after cRNA injections.
Site-directed mutagenesis and cRNA synthesis. The cDNA of rat P2X4R (GenBank accession No. X87763) was sub-cloned into pcDNA3 vector (Invitrogen, Carlsbad, Calif.). Mutagenesis was performed to introduce single point mutations using QuickChange IIXL Site-Directed Mutagenesis kit (Stratagene, La Jolla, Calif.). The sequences of mutant constructs were verified using automated DNA sequencing (USC/Norris DNA Core Facility, University of Southern California).
The DNA of WT or mutant receptors was linearized and transcribed using the mMESSAGE mMACHINE kit (Ambion, Austin, Tex.) to result in cRNA, which was stored at −70° C. until injection.
Whole-cell voltage-clamp recordings. Two-electrode voltage-clamp recordings of oocytes were performed using a Warner Instruments Model OC-725C oocyte clamp amplifier (Hamden, Conn.) using procedures published earlier^5,6.
Experimental procedures. To induce currents and test the effects of alcohols and IVM in the present experiments, maximal (100 μM) or submaximal ATP concentrations (EC5-10 furthered referred to as EC10) were used. It has been previously shown that the use of EC10 can maximize the effects of ethanol and minimize receptor desensitization 18,19. The washout time between agonist applications was at least 5-10 min to allow complete re-sensitization of the receptors^18, 19.
Effects of the drugs were tested after a stable response to ATP EC10 was obtained. After a sufficient washout time (5-15 min), the cells were challenged with the same ATP EC10 to ensure an accurate response to the drugs and to asses any change in the baseline level.
IVM and alcohol applications.
Data analysis. Data are obtained from several batches of oocytes of at least 3 different frogs and are expressed as mean±SEM. Ethanol (hexanol) and/or IVM effects are presented as percentage change of peak currents evoked by ATP EC10 alone. Data were fitted to a concentration-response curve by using the following logistic equation: I=Imax*[drug]/([drug]+(EC50)), where I/Imax is the percentage of the maximum obtainable response, EC50 is the concentration producing a half-maximal response. GraphPAD Prism software (San Diego, Calif.) was used for data analysis and curve fitting. Statistical analysis was performed using unpaired t-test with significance set at P<0.05.

rat WT P2X4 receptor = molecular target: T2, rat WT P2X4 receptor (Rattus norvegicus, UniProt P51577); assay: Comparison of Ivermectin analogues: two-electrode voltage-clamp of ATP EC10 currents in rat WT P2X4 receptor in Xenopus oocytes; type: cell-based
T2 construct: expressed in transfected cells; host or cells: Xenopus laevis oocytes injected with cRNA
T2 sequence (P51577 1-388): T1 sequence (P51577 1-388)
Method: Isolation of Xenopus Oocytes and cRNA Injections. Xenopus laevis frog (Nasco; WI) maintenance, oocyte isolation and cRNA injections were performed according to protocols as described previously (11,12,24).
Transcription of cDNA to cRNA. XL-Blue E. coli competent cells (Stratagene; CA) were transformed with rat WT P2X4 receptor cDNAs cloned into pcDNA3 vector (Invitrogen; CA). The isolated DNA was linearized and transcribed to result in capped cRNA, which was dissolved in nuclease-free water and stored at −70° C. until injection.
Whole-Cell Voltage Clamp Recording. […] Electrodes were prepared and used to impale the oocyte that was continuously perfused at the rate of 3-4 ml/min by extracellular bathing solution per procedures previously published (11,12,24). The peak currents recorded using a strip-chart recorder (Barnstead/Thermolyne, Iowa) were used in data analysis. All experiments were performed at room temperature (20-23° C.).
Experimental Procedures. Maximal ATP currents were induced by 15 s application of 100 μM ATP. Submaximal ATP concentrations (EC10) were applied for 20 s to generate currents. Ethanol and ABM/IVM were co-applied with ATP EC10. Washout time between drug applications was at least 5 min.
Data Analysis. Data are obtained from several batches of at least 3 different oocyte batches and are presented as percentage change of peak currents evoked by ATP EC10 alone±SEM. GraphPAD Prism software (San Diego, Calif.) was used for data analysis and curve fitting. Statistical analysis was performed using Student's unpaired t-test and significance set at P<0.05.

male C57BL/6 mice = settings: mouse, in vivo
P2X2R = assay: Effect of n-chain alcohols on P2X2R function (unpublished data); type: cell-based
Source text: This possibility was investigated by testing the effects of IVM on another n-chain alcohol. Previous investigations report that short chain alcohols potentiate, whereas long chain alcohols inhibit, native nicotinic acetylcholine receptors (nAChRs) contained in neuromuscular or Torpedo preparations^26-28. This alcohol crossover occurred at approximately butanol in nAChRs expressed in Xenopus oocytes^29. […] It is believed that testing an alcohol that produced potentiation, rather than inhibition, would provide an alternative method of determining if the interaction between ethanol and IVM represented an additive effect.

[1] = tested on: mutant P2X4Rs at position 336; settings: cited from earlier work

For CCCCCCO [hexanol], the “effect on ATP-induced currents in P2X4R” value (rat P2X4R; hexanol (C6) 10 mM) was “significantly potentiated; also recorded: significant potentiation”.

With Selamectin the “potency in modulating P2X4R activity relative to IVM (lower potency)” value (rat WT P2X4 receptor) was 3-5 fold, the “antagonism of the inhibitory effects of ethanol” value (rat WT P2X4 receptor; SEL at 3 and 10 mM, 50 mM ethanol, co-application) was “antagonistic effect” and the “potentiation of ATP-induced currents, concentration dependence” value (rat WT P2X4 receptor; co-application and pre-incubation (FIGS. 10C and 10D)) was “small concentration-independent potentiation”. For the same molecule, the “potentiation of P2X4Rs” value (rat WT P2X4 receptor; only at 10 μM SEL during co-application) was “Significant potentiation”, the “potentiation with the pre-incubation protocol versus co-application” value (rat WT P2X4 receptor; pre-incubation) was “higher potentiation” and the “ethanol intake in mice” value (male C57BL/6 mice) was “no effect”.

With butanol the “effect on ATP-induced currents in P2X4R” value (rat P2X4R; butanol (C4) 50 mM) was “minimal effect”, the “effect on ATP-induced currents in P2X4R” value (rat P2X4R; butanol (C4) 50 mM, listed as Butanol) was “minimal effects” and the “effect on P2X2R function” value (P2X2R) was “potentiates”.

For CCCO [propanol], the “effect on P2X2R function” value (P2X2R) was “inhibit”.

In the case of Abamectin [ABM], the “antagonism of the inhibitory effects of ethanol” value (rat WT P2X4 receptor; ABM 0.5 μM, 25 and 50 mM ethanol) is reported as “antagonizes”, the “antagonism of the inhibitory effects of ethanol” value (rat WT P2X4 receptor; ABM 1.0 μM, all ethanol concentrations tested) is reported as “able to antagonize” and the “potency in modulating P2X4R activity relative to IVM (more potent)” value (rat WT P2X4 receptor; higher concentrations (≧3 μM)) is reported as 3-10 fold. For the same molecule, the “potentiation of P2X4R activity compared with IVM” value (rat WT P2X4 receptor; lower concentrations (0.5 and 1.0 μM)) was “to the same degree as IVM”.

With CCO [ethanol] the inhibition at 25000 µM (rat P2X4R; 25 mM ethanol, delivered separately, ATP EC10, read-out: inhibition of ATP-gated currents in P2X4Rs) was 9 ± 2.3%, the “effect on ATP EC10-induced currents in P2X4Rs” value (rat P2X4R; ethanol 25-200 mM co-applied with ATP, concentration-dependent and reversible) was “inhibited” and the “effect on ATP-induced currents in P2X4R” value (rat P2X4R; ethanol (C2) 200 mM) was “inhibited”. The “effect on P2X2R function” value (P2X2R) was “inhibit”, the “sensitivity of the receptor to ethanol” value ([1]; Ala, Val at position 336) was “reduced” and the “sensitivity of the receptor to ethanol” value ([1]; Arg or Glu at position 336) was “insensitive”.
